How the values were obtained:
[1] = system: Puccinia recondita f. Sp. Tritici; experiment: Fungicidal activity against Puccinia recondita f. sp. tritici / wheat / leaf disc preventative (brown rust); type: in vivo; settings: foliar, 200 ppm in the applied formulation, wheat leaf segments, preventative, compared to untreated control leaf disks, read-out: disease control
How it was run: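 Percent disease control relative to untreated check segments is scored once disease develops, 7 to 9 days after application. Wheat cv. Kanzler segments receive compound spray (200 ppm in formulation) one day before spore inoculation, then sit at 19° C. and 75% rh under 12 h light/12 h dark.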

[2] = system: Puccinia recondita f. Sp. Tritici; experiment: Fungicidal activity against Puccinia recondita f. sp. tritici / wheat / leaf disc curative (brown rust); type: in vivo; settings: foliar, 24 h, 200 ppm in the applied formulation, wheat leaf segments, curative (applied 1 day after inoculation), compared to untreated control leaf disks, read-out: disease control
How it was run: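 % disease control vs untreated, scored 6–8 d post-application. Wheat cv. Kanzler segments, spore-inoculated, dark 19° C/75% RH; formulated cpd applied 1 d post-inoc; then 19° C, 75% RH, 12 h L/12 h D.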

Phakopsora Pachyrhizi = experiment: Fungicidal activity against Phakopsora pachyrhizi / soybean / leaf disc preventative (Asian soybean rust); type: in vivo; settings: foliar, 200 ppm in the applied formulation, soybean leaf disks, compared to untreated control leaf disks, read-out: disease control
How it was run: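 Scored 12 to 14 days post-application as percent control relative to untreated check discs, rust spores were sprayed under the disc one day after compound treatment. Incubation: 20°C, 75% rh, first 24–36 h in darkness, then 12 h daily light; discs kept on water agar.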

[3] = system: Glomerella lagenarium (Colletotrichum lagenarium); experiment: Fungicidal activity against Glomerella lagenarium (Colletotrichum lagenarium) liquid culture / cucumber / preventative (anthracnose); type: cell-based; settings: Colletotrichum orbiculare; 20 ppm in the applied formulation; liquid culture (PDB), growth inhibition measured photometrically after 3 to 4 days; compared to untreated control; read-out: disease control
How it was run: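 Percent activity against the untreated check was derived from photometric growth measurements made 2 to 7 days after conidia in potato dextrose broth were combined with compound at 20 ppm. Cultures were kept dark at 24 °C and 96% humidity.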

C=CCN(Cc1ccc(-c2noc(C(F)(F)F)n2)cc1)C(=O)CCCOC [Compound 1.487, N-allyl-4-methoxy-N-[[4-[5-(trifluoromethyl)-1,2,4-oxadiazol-3-yl]phenyl]methyl]-butanamide]
≥ 80%: pest or weed control at 200 ppm [1] | pest or weed control at 200 ppm [2] | pest or weed control at 200 ppm (Phakopsora Pachyrhizi) | inhibition of growth at 20 ppm [3]

O=C(C1CCCO1)N(O)Cc1ccc(-c2noc(C(F)(F)F)n2)cc1 (centres unmarked) [Compound 1.770, N-hydroxy-N-[[4-[5-(trifluoromethyl)-1,2,4-oxadiazol-3-yl]phenyl]methyl]-tetrahydrofuran-2-carboxamide]
≥ 80%: pest or weed control at 200 ppm [1] | pest or weed control at 200 ppm [2] | pest or weed control at 200 ppm (Phakopsora Pachyrhizi) | inhibition of growth at 20 ppm [3]

O=C(C1CSC1)N(Cc1ccc(-c2noc(C(F)(F)F)n2)cc1)C1CC1 [Compound 1.104, N-cyclopropyl-N-[[4-[5-(trifluoromethyl)-1,2,4-oxadiazol-3-yl]phenyl]methyl]-thietane-3-carboxamide]
≥ 80%: pest or weed control at 200 ppm [1] | pest or weed control at 200 ppm [2] | pest or weed control at 200 ppm (Phakopsora Pachyrhizi) | inhibition of growth at 20 ppm [3]

CON(Cc1ccc(-c2noc(C(F)(F)F)n2)cc1)C(=O)NC1CCC1 [Compound 3.16, 3-cyclobutyl-1-methoxy-1-[[4-[5-(trifluoromethyl)-1,2,4-oxadiazol-3-yl]phenyl]methyl]urea]
≥ 80%: pest or weed control at 200 ppm [1] | pest or weed control at 200 ppm [2] | pest or weed control at 200 ppm (Phakopsora Pachyrhizi) | inhibition of growth at 20 ppm [3]

CCCN(Cc1ccc(-c2noc(C(F)(F)F)n2)cc1)C(=O)CC#N [Compound 1.664, 2-cyano-N-propyl-N-[[4-[5-(trifluoromethyl)-1,2,4-oxadiazol-3-yl]phenyl]methyl]-acetamide]
≥ 80%: pest or weed control at 200 ppm [1] | pest or weed control at 200 ppm [2] | pest or weed control at 200 ppm (Phakopsora Pachyrhizi) | inhibition of growth at 20 ppm [3]

CC(C)N(Cc1ccc(-c2noc(C(F)(F)F)n2)cc1)C(=O)C1(C)COC1 [Compound 1.679, N-isopropyl-3-methyl-N-[[4-[5-(trifluoromethyl)-1,2,4-oxadiazol-3-yl]phenyl]methyl]-oxetane-3-carboxamide]
≥ 80%: pest or weed control at 200 ppm [1] | pest or weed control at 200 ppm [2] | pest or weed control at 200 ppm (Phakopsora Pachyrhizi) | inhibition of growth at 20 ppm [3]

CON(Cc1ccc(-c2noc(C(F)(F)F)n2)cc1)C(=O)CO [Compound 1.778, 2-hydroxy-N-methoxy-N-[[4-[5-(trifluoromethyl)-1,2,4-oxadiazol-3-yl]phenyl]methyl]-acetamide]
≥ 80%: pest or weed control at 200 ppm [1] | pest or weed control at 200 ppm [2] | pest or weed control at 200 ppm (Phakopsora Pachyrhizi) | inhibition of growth at 20 ppm [3]

CC(C)(C)C(=O)N(Cc1ccc(-c2noc(C(F)(F)F)n2)cc1)C1CC1 [Compound 1.117, N-cyclopropyl-2,2-dimethyl-N-[[4-[5-(trifluoromethyl)-1,2,4-oxadiazol-3-yl]phenyl]methyl]-propanamide]
≥ 80%: pest or weed control at 200 ppm [1] | pest or weed control at 200 ppm [2] | pest or weed control at 200 ppm (Phakopsora Pachyrhizi) | inhibition of growth at 20 ppm [3]

COC(C)C(=O)N(Cc1ccc(-c2noc(C(F)(F)F)n2)cc1)C1CC1 (centres unmarked) [Compound 1.147, N-cyclopropyl-2-methoxy-N-[[4-[5-(trifluoromethyl)-1,2,4-oxadiazol-3-yl]phenyl]methyl]-propanamide]
≥ 80%: pest or weed control at 200 ppm [1] | pest or weed control at 200 ppm [2] | pest or weed control at 200 ppm (Phakopsora Pachyrhizi) | inhibition of growth at 20 ppm [3]

C#CCN(Cc1ccc(-c2noc(C(F)(F)F)n2)cc1)C(=O)C1CC1 [Compound 1.201, N-prop-2-ynyl-N-[[4-[5-(trifluoromethyl)-1,2,4-oxadiazol-3-yl]phenyl]methyl]-cyclopropane-carboxamide]
≥ 80%: pest or weed control at 200 ppm [1] | pest or weed control at 200 ppm [2] | pest or weed control at 200 ppm (Phakopsora Pachyrhizi) | inhibition of growth at 20 ppm [3]

O=C(Cc1ccccc1)N(Cc1ccc(-c2noc(C(F)(F)F)n2)cc1)C1CC1 [Compound 1.121, N-cyclopropyl-2-phenyl-N-[[4-[5-(trifluoromethyl)-1,2,4-oxadiazol-3-yl]phenyl]methyl]-acetamide]
≥ 80%: pest or weed control at 200 ppm [1] | pest or weed control at 200 ppm [2] | pest or weed control at 200 ppm (Phakopsora Pachyrhizi) | inhibition of growth at 20 ppm [3]

CCON(Cc1ccc(-c2noc(C(F)(F)F)n2)cc1)C(=O)C(C)OC (centres unmarked) [Compound 1.629, N-ethoxy-2-methoxy-N-[[4-[5-(trifluoromethyl)-1,2,4-oxadiazol-3-yl]phenyl]methyl]-propanamide]
≥ 80%: pest or weed control at 200 ppm [1] | pest or weed control at 200 ppm [2] | pest or weed control at 200 ppm (Phakopsora Pachyrhizi) | inhibition of growth at 20 ppm [3]

CCCN(Cc1ccc(-c2noc(C(F)(F)F)n2)cc1)C(=O)COC [Compound 1.575, 2-methoxy-N-propyl-N-[[4-[5-(trifluoromethyl)-1,2,4-oxadiazol-3-yl]phenyl]methyl]-acetamide]
≥ 80%: pest or weed control at 200 ppm [1] | pest or weed control at 200 ppm [2] | pest or weed control at 200 ppm (Phakopsora Pachyrhizi) | inhibition of growth at 20 ppm [3]

O=C(C1CCC1)N(Cc1ccc(-c2noc(C(F)(F)F)n2)cc1)C1COC1 [Compound 1.742, N-(oxetan-3-yl)-N-[[4-[5-(trifluoromethyl)-1,2,4-oxadiazol-3-yl]phenyl]methyl]-cyclobutane-carboxamide]
≥ 80%: pest or weed control at 200 ppm [1] | pest or weed control at 200 ppm [2] | pest or weed control at 200 ppm (Phakopsora Pachyrhizi) | inhibition of growth at 20 ppm [3]

C=C(C)C(=O)N(CCOC)Cc1ccc(-c2noc(C(F)(F)F)n2)cc1 [Compound 1.346, N-(2-methoxyethyl)-2-methyl-N-[[4-[5-(trifluoromethyl)-1,2,4-oxadiazol-3-yl]phenyl]methyl]prop-2-enamide]
≥ 80%: pest or weed control at 200 ppm [1] | pest or weed control at 200 ppm [2] | pest or weed control at 200 ppm (Phakopsora Pachyrhizi) | inhibition of growth at 20 ppm [3]

COCCN(Cc1ccc(-c2noc(C(F)(F)F)n2)cc1)C(=O)C1CCCCO1 (centres unmarked) [Compound 1.324, N-(2-methoxyethyl)-N-[[4-[5-(trifluoromethyl)-1,2,4-oxadiazol-3-yl]phenyl]methyl]-tetrahydropyran-2-carboxamide]
≥ 80%: pest or weed control at 200 ppm [1] | pest or weed control at 200 ppm [2] | pest or weed control at 200 ppm (Phakopsora Pachyrhizi) | inhibition of growth at 20 ppm [3]

C#CCN(Cc1ccc(-c2noc(C(F)(F)F)n2)cc1)C(=O)CCC [Compound 1.165, N-prop-2-ynyl-N-[[4-[5-(trifluoromethyl)-1,2,4-oxadiazol-3-yl]phenyl]methyl]-butanamide]
≥ 80%: pest or weed control at 200 ppm [1] | pest or weed control at 200 ppm [2] | pest or weed control at 200 ppm (Phakopsora Pachyrhizi) | inhibition of growth at 20 ppm [3]

CCC(C)N(Cc1ccc(-c2noc(C(F)(F)F)n2)cc1)C(C)=O (centres unmarked) [Compound 1.407, N-sec-butyl-N-[[4-[5-(trifluoromethyl)-1,2,4-oxadiazol-3-yl]phenyl]methyl]-acetamide]
≥ 80%: pest or weed control at 200 ppm [1] | pest or weed control at 200 ppm [2] | pest or weed control at 200 ppm (Phakopsora Pachyrhizi) | inhibition of growth at 20 ppm [3]

C#CCN(Cc1ccc(-c2noc(C(F)(F)F)n2)cc1)C(=O)CC1CC1 [Compound 1.167, 2-cyclopropyl-N-prop-2-ynyl-N-[[4-[5-(trifluoromethyl)-1,2,4-oxadiazol-3-yl]phenyl]methyl]-acetamide]
≥ 80%: pest or weed control at 200 ppm [1] | pest or weed control at 200 ppm [2] | pest or weed control at 200 ppm (Phakopsora Pachyrhizi) | inhibition of growth at 20 ppm [3]

CCCN(Cc1ccc(-c2noc(C(F)(F)F)n2)cc1)C(=O)C1CCOC1 (centres unmarked) [Compound 1.654, N-propyl-N-[[4-[5-(trifluoromethyl)-1,2,4-oxadiazol-3-yl]phenyl]methyl]-tetrahydrofuran-3-carboxamide]
≥ 80%: pest or weed control at 200 ppm [1] | pest or weed control at 200 ppm [2] | pest or weed control at 200 ppm (Phakopsora Pachyrhizi) | inhibition of growth at 20 ppm [3]

CON(Cc1ccc(-c2noc(C(F)(F)F)n2)cc1)C(=O)C1CCOC1 (centres unmarked) [Compound 1.29, N-methoxy-N-[[4-[5-(trifluoromethyl)-1,2,4-oxadiazol-3-yl]phenyl]methyl]-tetrahydrofuran-3-carboxamide]
≥ 80%: pest or weed control at 200 ppm [1] | pest or weed control at 200 ppm [2] | pest or weed control at 200 ppm (Phakopsora Pachyrhizi) | inhibition of growth at 20 ppm [3]

CON(Cc1ccc(-c2noc(C(F)(F)F)n2)cc1)C(=O)NCc1ccccc1 [Compound 3.15, 3-benzyl-1-methoxy-1-[[4-[5-(trifluoromethyl)-1,2,4-oxadiazol-3-yl]phenyl]methyl]urea]
≥ 80%: pest or weed control at 200 ppm [1] | pest or weed control at 200 ppm [2] | pest or weed control at 200 ppm (Phakopsora Pachyrhizi) | inhibition of growth at 20 ppm [3]

C#CCN(Cc1ccc(-c2noc(C(F)(F)F)n2)cc1)C(=O)C(C)CC(C)=O (centres unmarked) [Compound 1.164, 2-methyl-4-oxo-N-prop-2-ynyl-N-[[4-[5-(trifluoromethyl)-1,2,4-oxadiazol-3-yl]phenyl]methyl]-pentanamide]
≥ 80%: pest or weed control at 200 ppm [1] | pest or weed control at 200 ppm [2] | pest or weed control at 200 ppm (Phakopsora Pachyrhizi) | inhibition of growth at 20 ppm [3]

— US11180462B2, “Microbiocidal oxadiazole derivatives” (SYNGENTA PARTICIPATIONS AG, priority 2015, dated 2021)
